Laboratory results published in US8426408B2, “Pyrimidine inhibitors of kinases” (AbbVie Inc., priority 2009, dated 2013).

What was measured:
Aurora B = target: T1, Aurora B (Homo sapiens, UniProt Q96GD4); assay: Aurora B enzyme inhibition (time-resolved fluorescence, histone H3 peptide); type: biochemical; conditions: 1 mM ATP
T1 construct: Active Aurora B enzyme (recombinant residues 1-344)
Method in brief: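 Recombinant Aurora B (residues 1-344) with GST-INCENP phosphorylated biotinylated histone H3 (1-21) peptide at 1 mM ATP in HEPES pH 7.4 with MgCl2, orthovanadate and Triton X-100 for 1 h. After EDTA stop, the phosphopeptide was detected by TR-FRET (Eu-cryptate anti-phospho-H3 / SA-APC, 665/615 nm ratio). IC50 from an exponential fit.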

KDR [1] = target: T2, KDR (Homo sapiens, UniProt P35968); assay: KDR HTRF in vitro kinase assay; type: biochemical; set-up: purified enzyme (His6-KDR 789-1354, MW 63 kD); His6 (N); conditions: 1 mM ATP; read-out: KDR enzyme inhibition data (Ki)
Method in brief: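 His6-KDR 789-1354 (7 ng/well) with 0.5 μM biotinylated peptide substrate and 1 mM ATP in HEPES pH 7.1, MgCl2/MnCl2, 60 min at room temperature. EDTA-quenched, detected by streptavidin-XL-665 plus Eu-kryptate anti-phosphotyrosine HTRF after 3 h; IC50 from 620/665 nm ratio.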
Target sequence in this assay (P35968 789-1354): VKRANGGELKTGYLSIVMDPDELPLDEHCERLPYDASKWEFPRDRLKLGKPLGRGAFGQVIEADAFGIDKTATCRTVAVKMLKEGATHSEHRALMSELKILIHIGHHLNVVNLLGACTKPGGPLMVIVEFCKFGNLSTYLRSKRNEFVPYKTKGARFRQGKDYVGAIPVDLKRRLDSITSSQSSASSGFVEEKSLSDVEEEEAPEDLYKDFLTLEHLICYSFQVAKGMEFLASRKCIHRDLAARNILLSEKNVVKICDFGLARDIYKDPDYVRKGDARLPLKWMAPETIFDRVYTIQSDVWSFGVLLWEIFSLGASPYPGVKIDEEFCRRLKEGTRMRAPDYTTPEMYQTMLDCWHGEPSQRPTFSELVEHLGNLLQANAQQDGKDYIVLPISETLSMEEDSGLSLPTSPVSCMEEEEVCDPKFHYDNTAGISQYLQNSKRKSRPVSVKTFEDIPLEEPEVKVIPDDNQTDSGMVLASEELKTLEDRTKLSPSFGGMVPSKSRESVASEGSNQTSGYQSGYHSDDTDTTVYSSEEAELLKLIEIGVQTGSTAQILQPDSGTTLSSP

KDR [2] = target: T2, KDR; assay: KDR cellular assay (KDR receptor phosphorylation ELISA); type: cell-based; set-up: expressed in transfected cells; host or cells: 3T3 (embryonic mouse) cells; conditions: KDR transfected 3T3 (embryonic mouse) cells, VEGF stimulated; read-out: IC50 inhibition of KDR phosphorylation
Method in brief: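 KDR-transfected mouse 3T3 cells treated 20 min at 37° C with half-log compound dilutions, then stimulated 10 min with VEGF (100 ng/ml solution). Lysates captured on anti-KDR plates; phosphorylation by biotin antibody/streptavidin-HRP ELISA at 450 nm. IC50 by non-linear regression.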
Target sequence in this assay (P35968 20-1356): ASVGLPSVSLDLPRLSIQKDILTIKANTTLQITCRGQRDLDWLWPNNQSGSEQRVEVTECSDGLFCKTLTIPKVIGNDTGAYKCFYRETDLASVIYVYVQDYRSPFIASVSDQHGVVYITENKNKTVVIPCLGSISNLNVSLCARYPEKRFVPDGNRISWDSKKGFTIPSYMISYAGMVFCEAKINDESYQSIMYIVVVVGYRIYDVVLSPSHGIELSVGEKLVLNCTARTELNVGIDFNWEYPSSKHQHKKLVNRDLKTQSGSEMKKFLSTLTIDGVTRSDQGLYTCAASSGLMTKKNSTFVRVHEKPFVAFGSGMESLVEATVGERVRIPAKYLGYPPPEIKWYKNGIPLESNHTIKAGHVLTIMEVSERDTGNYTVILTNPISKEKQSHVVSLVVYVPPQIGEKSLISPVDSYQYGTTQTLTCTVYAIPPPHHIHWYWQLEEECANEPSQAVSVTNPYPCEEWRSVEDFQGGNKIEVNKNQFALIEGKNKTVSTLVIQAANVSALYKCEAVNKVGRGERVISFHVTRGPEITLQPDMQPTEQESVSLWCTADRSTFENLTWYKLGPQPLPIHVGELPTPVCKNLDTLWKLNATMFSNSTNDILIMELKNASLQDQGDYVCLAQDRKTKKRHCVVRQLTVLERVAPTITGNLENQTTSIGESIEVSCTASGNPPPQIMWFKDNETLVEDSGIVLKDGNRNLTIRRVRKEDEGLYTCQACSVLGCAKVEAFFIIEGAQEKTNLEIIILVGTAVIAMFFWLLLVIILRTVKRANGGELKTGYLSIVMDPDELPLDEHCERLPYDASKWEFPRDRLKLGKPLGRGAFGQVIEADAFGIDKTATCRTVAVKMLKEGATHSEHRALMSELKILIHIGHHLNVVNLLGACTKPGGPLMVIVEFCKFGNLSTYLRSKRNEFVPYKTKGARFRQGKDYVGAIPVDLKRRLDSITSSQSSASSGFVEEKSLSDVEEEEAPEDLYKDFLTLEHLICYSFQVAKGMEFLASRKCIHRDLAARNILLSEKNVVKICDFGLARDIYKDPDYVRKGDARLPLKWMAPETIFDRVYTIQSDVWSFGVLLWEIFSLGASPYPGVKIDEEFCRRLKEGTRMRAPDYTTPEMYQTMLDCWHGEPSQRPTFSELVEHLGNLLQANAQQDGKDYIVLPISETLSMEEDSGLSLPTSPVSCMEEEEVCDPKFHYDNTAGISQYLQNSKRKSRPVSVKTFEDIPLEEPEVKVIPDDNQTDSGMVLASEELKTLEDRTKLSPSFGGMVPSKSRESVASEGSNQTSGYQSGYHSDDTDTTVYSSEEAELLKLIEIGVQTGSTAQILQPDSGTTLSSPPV

T1 sequence (Q96GD4 whole entry, the tested form may be a part): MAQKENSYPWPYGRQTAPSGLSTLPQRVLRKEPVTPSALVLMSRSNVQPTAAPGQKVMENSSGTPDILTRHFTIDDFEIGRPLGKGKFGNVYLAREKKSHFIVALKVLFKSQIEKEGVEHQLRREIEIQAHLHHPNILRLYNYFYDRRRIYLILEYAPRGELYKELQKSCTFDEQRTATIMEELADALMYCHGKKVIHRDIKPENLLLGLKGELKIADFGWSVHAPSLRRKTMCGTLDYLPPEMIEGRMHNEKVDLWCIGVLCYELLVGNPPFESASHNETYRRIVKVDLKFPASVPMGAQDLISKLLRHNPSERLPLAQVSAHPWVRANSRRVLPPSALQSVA
T1 sequence (Q9NQS7 826-918 partner limits assumed): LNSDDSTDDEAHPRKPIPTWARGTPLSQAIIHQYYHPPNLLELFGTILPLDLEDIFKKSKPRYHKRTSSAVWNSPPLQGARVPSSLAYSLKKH

**Q.** CC(C)n1cc(Nc2ncc(Br)c(N[C@H]3[C@@H](C(N)=O)[C@@H]4C=C[C@H]3C4)n2)cn1 [Example 112, (1S,2S,3R,4R)-3-({5-bromo-2-[(1-isopropyl-1H-pyrazol-4-yl)amino]pyrimidin-4-yl}amino)bicyclo[2.2.1]hept-5-ene-2-carboxamide] was tested. Which Ki (Aurora B) did it give?
**A.** Its Ki is less than 100 nM.

**Q.** And the Ki (KDR [1])?
**A.** Its Ki is less than 100 nM.

**Q.** What about the IC50 (KDR [2]) of the same molecule?
**A.** Its IC50 is less than 100 nM.

**Q.** Which results are given for COCCOCCn1cc(Nc2ncc(Br)c(N[C@H]3[C@@H](C(N)=O)[C@@H]4C=C[C@H]3C4)n2)cn1 [Example 110, (1S,2S,3R,4R)-3-{[5-bromo-2-({1-[2-(2-methoxyethoxy)ethyl]-1H-pyrazol-4-yl}amino)pyrimidin-4-yl]amino}bicyclo[2.2.1]hept-5-ene-2-carboxamide]?
**A.** Ki (Aurora B): < 100 nM; Ki (KDR [1]): < 100 nM; IC50 (KDR [2]): < 100 nM

**Q.** How did the Ki (Aurora B) turn out when C[C@@H](O)Cn1cc(Nc2ncc(Cl)c(N[C@H]3[C@@H](C(N)=O)[C@@H]4C=C[C@H]3C4)n2)cn1 [Example 105, (1S,2S,3R,4R)-3-{[5-chloro-2-({1-[(2R)-2-hydroxypropyl]-1H-pyrazol-4-yl}amino)pyrimidin-4-yl]amino}bicyclo[2.2.1]hept-5-ene-2-carboxamide] was run?
**A.** Its Ki is less than 100 nM.

**Q.** And the Ki (KDR [1])?
**A.** Its Ki is less than 100 nM.

**Q.** What about the IC50 (KDR [2]) of the same molecule?
**A.** The IC50 was less than 100 nM.

**Q.** How did the Ki (Aurora B) turn out when Cn1cc(Nc2ncc(Cl)c(N[C@H]3[C@@H](C(N)=O)C[C@H]4C[C@@H]3C4(C)C)n2)cn1 [Example 165, (1R,2R,3S,5R)-2-({5-chloro-2-[(1-methyl-1H-pyrazol-4-yl)amino]pyrimidin-4-yl}amino)-6,6-dimethylbicyclo[3.1.1]heptane-3-carboxamide] was run?
**A.** Its Ki is less than 100 nM.

**Q.** What about the Ki (KDR [1]) of the same molecule?
**A.** Its Ki is less than 100 nM.

**Q.** What about the IC50 (KDR [2]) of the same molecule?
**A.** Its IC50 is 100 to 1000 nM.

**Q.** With CCn1cc(Nc2ncc(C(F)(F)F)c(N[C@@H]3[C@H]4CC[C@H](C4)[C@@H]3C(N)=O)n2)cn1.CCn1cc(Nc2ncc(C(F)(F)F)c(N[C@H]3[C@@H]4CC[C@@H](C4)[C@H]3C(N)=O)n2)cn1 (mixture of isomers) [Example 24, (1R,2S,3R,4S)-3-{[2-[(1-ethyl-1H-pyrazol-4-yl)amino]-5-(trifluoromethyl)pyrimidin-4-yl]amino}bicyclo[2.2.1]heptane-2-carboxamide and (1S,2R,3S,4R)-3-{[2-[(1-ethyl-1H-pyrazol-4-yl)amino]-5-(trifluoromethyl)pyrimidin-4-yl]amino}bicyclo[2.2.1]heptane-2-carboxamide] as the molecule, how does the Ki (Aurora B) read?
**A.** Its Ki is less than 100 nM.

**Q.** What about the Ki (KDR [1]) of the same molecule?
**A.** The Ki was less than 100 nM.

**Q.** What about the IC50 (KDR [2]) of the same molecule?
**A.** Its IC50 is less than 100 nM.

**Q.** How did the Ki (Aurora B) turn out when CS(=O)(=O)CCn1cc(Nc2ncc(Cl)c(N[C@H]3[C@@H](C(N)=O)[C@@H]4C=C[C@H]3C4)n2)cn1 [Example 119, (1S,2S,3R,4R)-3-{[5-chloro-2-({1-[2-(methylsulfonyl)ethyl]-1H-pyrazol-4-yl}amino)pyrimidin-4-yl]amino}bicyclo[2.2.1]hept-5-ene-2-carboxamide] was run?
**A.** The Ki was less than 100 nM.

**Q.** What about the Ki (KDR [1]) of the same molecule?
**A.** The Ki was less than 100 nM.

**Q.** And the IC50 (KDR [2])?
**A.** The IC50 was 100 to 1000 nM.

**Q.** CC(C)n1cc(Nc2ncc(Cl)c(N[C@H]3[C@@H](C(N)=O)[C@@H]4C=C[C@H]3C4)n2)cn1 [Example 98, (1S,2S,3R,4R)-3-({5-chloro-2-[(1-isopropyl-1H-pyrazol-4-yl)amino]pyrimidin-4-yl}amino)bicyclo[2.2.1]hept-5-ene-2-carboxamide] was tested. Which Ki (Aurora B) did it give?
**A.** Its Ki is less than 100 nM.

**Q.** What about the Ki (KDR [1]) of the same molecule?
**A.** The Ki was less than 100 nM.

**Q.** And the IC50 (KDR [2])?
**A.** Its IC50 is less than 100 nM.

**Q.** Which Ki (Aurora B) does the source give for Cn1cc(Nc2ncc(C(F)(F)F)c(N[C@@H]3[C@@H]4CC[C@@H](C4)[C@@H]3C(N)=O)n2)cn1.Cn1cc(Nc2ncc(C(F)(F)F)c(N[C@H]3[C@H]4CC[C@H](C4)[C@H]3C(N)=O)n2)cn1 (mixture of isomers) [Example 20, (1S,2S,3R,4R)-3-{[2-[(1-methyl-1H-pyrazol-4-yl)amino]-5-(trifluoromethyl)pyrimidin-4-yl]amino}bicyclo[2.2.1]heptane-2-carboxamide and (1R,2R,3S,4S)-3-{[2-[(1-methyl-1H-pyrazol-4-yl)amino]-5-(trifluoromethyl)pyrimidin-4-yl]amino}bicyclo[2.2.1]heptane-2-carboxamide] here?
**A.** Its Ki is less than 100 nM.

**Q.** What about the Ki (KDR [1]) of the same molecule?
**A.** The Ki was less than 100 nM.

**Q.** What about the IC50 (KDR [2]) of the same molecule?
**A.** The IC50 was less than 100 nM.

**Q.** How did the Ki (Aurora B) turn out when CCn1cc(Nc2ncc(Cl)c(NC3C4CCC(O4)C3C(N)=O)n2)cn1 (racemic) [Example 142, (1S,2R,3S,4R)-3-({5-chloro-2-[(1-ethyl-1H-pyrazol-4-yl)amino]pyrimidin-4-yl}amino)-7-oxabicyclo[2.2.1]heptane-2-carboxamide and (1R,2S,3R,4S)-3-({5-chloro-2-[(1-ethyl-1H-pyrazol-4-yl)amino]pyrimidin-4-yl}amino)-7-oxabicyclo[2.2.1]heptane-2-carboxamide] was run?
**A.** The Ki was less than 100 nM.

**Q.** And the Ki (KDR [1])?
**A.** Its Ki is less than 100 nM.

**Q.** And the IC50 (KDR [2])?
**A.** Its IC50 is 100 to 1000 nM.

**Q.** CCn1cc(Nc2ncc(Cl)c(N[C@@H]3[C@@H]4CC[C@@H](C4)[C@@H]3C(N)=O)n2)cn1.CCn1cc(Nc2ncc(Cl)c(N[C@H]3[C@H]4CC[C@H](C4)[C@H]3C(N)=O)n2)cn1 (mixture of isomers) [Example 114, (1R,2R,3S,4S)-3-({5-chloro-2-[(1-ethyl-1H-pyrazol-4-yl)amino]pyrimidin-4-yl}amino)bicyclo[2.2.1]heptane-2-carboxamide and (1S,2S,3R,4R)-3-({5-chloro-2-[(1-ethyl-1H-pyrazol-4-yl)amino]pyrimidin-4-yl}amino)bicyclo[2.2.1]heptane-2-carboxamide] was tested. Which Ki (Aurora B) did it give?
**A.** The Ki was less than 100 nM.

**Q.** And the Ki (KDR [1])?
**A.** Its Ki is less than 100 nM.

**Q.** What about the IC50 (KDR [2]) of the same molecule?
**A.** The IC50 was 100 to 1000 nM.

**Q.** With CN1CCC(Cn2cc(Nc3ncc(Cl)c(N[C@H]4[C@@H](C(N)=O)[C@@H]5C=C[C@H]4C5)n3)cn2)CC1 [Example 97, (1S,2S,3R,4R)-3-{[5-chloro-2-({1-[(1-methylpiperidin-4-yl)methyl]-1H-pyrazol-4-yl}amino)pyrimidin-4-yl]amino}bicyclo[2.2.1]hept-5-ene-2-carboxamide] as the molecule, how does the Ki (Aurora B) read?
**A.** The Ki was less than 100 nM.

**Q.** And the Ki (KDR [1])?
**A.** Its Ki is less than 100 nM.

**Q.** And the IC50 (KDR [2])?
**A.** The IC50 was less than 100 nM.

**Q.** For CN(C)CC(=O)N1CCC(n2cc(Nc3ncc(Cl)c(N[C@H]4[C@@H](C(N)=O)[C@@H]5C=C[C@H]4C5)n3)cn2)CC1 [Example 89, (1S,2S,3R,4R)-3-{[5-chloro-2-({1-[1-(N,N-dimethylglycyl)piperidin-4-yl]-1H-pyrazol-4-yl}amino)pyrimidin-4-yl]amino}bicyclo[2.2.1]hept-5-ene-2-carboxamide], which Ki (Aurora B) is on record?
**A.** The Ki was less than 100 nM.

**Q.** What about the Ki (KDR [1]) of the same molecule?
**A.** The Ki was less than 100 nM.

**Q.** What about the IC50 (KDR [2]) of the same molecule?
**A.** The IC50 was less than 100 nM.

**Q.** Cc1nn(C)cc1Nc1ncc(Cl)c(N[C@H]2[C@@H](C(N)=O)[C@@H]3C=C[C@H]2C3)n1 [Example 134, (1S,2S,3R,4R)-3-({5-chloro-2-[(1,3-dimethyl-1H-pyrazol-4-yl)amino]pyrimidin-4-yl}amino)bicyclo[2.2.1]hept-5-ene-2-carboxamide] was tested. Which Ki (Aurora B) did it give?
**A.** Its Ki is less than 100 nM.

**Q.** What about the Ki (KDR [1]) of the same molecule?
**A.** The Ki was less than 100 nM.

**Q.** And the IC50 (KDR [2])?
**A.** Its IC50 is 100 to 1000 nM.

**Q.** With Cn1cc(Nc2ncc([N+](=O)[O-])c(N[C@H]3[C@@H](C(N)=O)[C@@H]4C=C[C@H]3C4)n2)cn1 [Example 139, (1S,2S,3R,4R)-3-({2-[(1-methyl-1H-pyrazol-4-yl)amino]-5-nitropyrimidin-4-yl}amino)bicyclo[2.2.1]hept-5-ene-2-carboxamide] as the molecule, how does the Ki (Aurora B) read?
**A.** The Ki was less than 100 nM.

**Q.** And the Ki (KDR [1])?
**A.** Its Ki is less than 100 nM.

**Q.** What about the IC50 (KDR [2]) of the same molecule?
**A.** The IC50 was 100 to 1000 nM.

**Q.** For NC(=O)[C@@H]1[C@H](Nc2nc(Nc3cnn(C[C@H]4CCCN4)c3)ncc2Cl)[C@H]2C=C[C@@H]1C2 [Example 102, (1S,2S,3R,4R)-3-{[5-chloro-2-({1-[(2R)-pyrrolidin-2-ylmethyl]-1H-pyrazol-4-yl}amino)pyrimidin-4-yl]amino}bicyclo[2.2.1]hept-5-ene-2-carboxamide], which Ki (Aurora B) is on record?
**A.** The Ki was less than 100 nM.

**Q.** And the Ki (KDR [1])?
**A.** The Ki was less than 100 nM.

**Q.** What about the IC50 (KDR [2]) of the same molecule?
**A.** The IC50 was less than 100 nM.

**Q.** Which results are given for Cn1cc(Nc2ncc(Cl)c(N[C@@H]3[C@@H]4CC[C@@H](C4)[C@@H]3C(N)=O)n2)cn1.Cn1cc(Nc2ncc(Cl)c(N[C@H]3[C@H]4CC[C@H](C4)[C@H]3C(N)=O)n2)cn1 (mixture of isomers) [Example 113, (1R,2R,3S,4S)-3-({5-chloro-2-[(1-methyl-1H-pyrazol-4-yl)amino]pyrimidin-4-yl}amino)bicyclo[2.2.1]heptane-2-carboxamide and (1S,2S,3R,4R)-3-({5-chloro-2-[(1-methyl-1H-pyrazol-4-yl)amino]pyrimidin-4-yl}amino)bicyclo[2.2.1]heptane-2-carboxamide]?
**A.** Ki (Aurora B): < 100 nM; Ki (KDR [1]): < 100 nM; IC50 (KDR [2]): 100 to 1000 nM

**Q.** What does the source list for NC(=O)[C@@H]1[C@H](Nc2nc(Nc3cnn(CCc4cccc(Cl)c4)c3)ncc2Cl)[C@H]2C=C[C@@H]1C2 [Example 158, (1S,2S,3R,4R)-3-{[5-chloro-2-({1-[2-(3-chlorophenyl)ethyl]-1H-pyrazol-4-yl}amino)pyrimidin-4-yl]amino}bicyclo[2.2.1]hept-5-ene-2-carboxamide]?
**A.** Ki (Aurora B): < 100 nM; Ki (KDR [1]): < 100 nM; IC50 (KDR [2]): 100 to 1000 nM

**Q.** NC(=O)[C@H]1[C@@H]2CC[C@@H](C2)[C@H]1Nc1nc(Nc2cnn(CCO)c2)ncc1Cl [Example 93, (1R,2S,3R,4S)-3-[(5-chloro-2-{[1-(2-hydroxyethyl)-1H-pyrazol-4-yl]amino}pyrimidin-4-yl)amino]bicyclo[2.2.1]heptane-2-carboxamide] was tested. Which Ki (Aurora B) did it give?
**A.** The Ki was less than 100 nM.

**Q.** And the Ki (KDR [1])?
**A.** Its Ki is less than 100 nM.

**Q.** What about the IC50 (KDR [2]) of the same molecule?
**A.** The IC50 was 100 to 1000 nM.
